This note sets out measurements from US5221669A, “Antiviral compositions containing α-cyclodextrin sulfates alone and in combination with other known antiviral agents and glucocorticoids and methods of treating viral infections” (The United States of America as represented by the …, priority 1991, dated 1993).

Where “and” joins values, the source holds several entries; their conditions need not be identical. Identical values can stand only once. Like-named read-outs stand apart in the source and are kept apart here.

In one assay the test system is HIV-1. In words: HIV-1 replication in PHA-stimulated PMNC cultures, RT method on culture supernatants. As to conditions: for Virus-enhancement effect: low drug concentrations; for Increase in virus production: concentrations of 1.0 μg ml^-1 or less.
The subject of assay [1] is PMNCs. Particulars: for % <Decrease (viable cells): decrease vs control; for Viable cells: controls 118 and 106; for % >Increase (viable cells): increase vs control. The protocol: Uninfected PMNCs, drug-treated PMNCs, and drug-treated and virus-infected PMNCs in different experiments were tested for drug toxicity and for the alterations in the numbers of viable cells in response to drug treatment by trypan blue exclusion method.
To understand the mechanism of virus enhancement and to evaluate the toxicity of the sulphated sugars to PMNCs in culture, cell viability counts were performed on trypan blue-stained cells.

The test system of assay [2] is PMNCs. Kind of assay: Cell proliferation (cell count) with hydrocortisone phosphate and α-cyclodextrin sulfate. The format is cell-based, human. The source says: Anti-HIV Effects of Sulphated Sugars in Presence of Glucocorticoids. HIV infections are at some later stages invariably complicated by pathologies which involve neovascularization, particularly those associated with Kaposi's sarcoma. Previously, Folkman et al., Science 243, 1490-1493, 1989, observed that B-CDS stimulates this particular pathology, but that this side-effect can be suppressed by glucocorticoids. […] Thus, pathological neovascularization can be avoided without comprising the anti-HIV effects.

The target of assay [3] is T1, reverse transcriptase enzyme of detergent-disrupted LAV-1BRU isolate (Human immunodeficiency virus type 1 (BRU ISOLATE), UniProt P03367).
T1 construct: poly(rA).oligo(dT) template
In words: Direct effect on reverse transcriptase enzyme activity of detergent-disrupted virus. In kind it is biochemical. Particulars: for Inhibition of RT enzyme activity: concentrations tested up to 25.0 μg ml^-1; for RT activity: control 180; for % >Increase (RT activity): increase vs control; for % <Decrease (RT activity): decrease vs control. The source says: Microb. Agents Chemother. 32:684-688 (1988).
The direct effect of A-CDS, B-CDS and PPS on the reverse transcriptase enzyme activity by treating a detergent-disrupted LAV-1BRU isolate with these drugs and subjecting it to the RT method was examined.

A further assay has as its system HIV-1 p24 antigen. In words: p24 antigen ELISA in supernatant-free lysed cells. The format is cell-based. As to conditions: supernatant-free lysed cells after exposure. An excerpt: Intracellular changes in the amount of HIV-1 following exposure to PPS were studied by measuring p24 antigen in the supernatant-free lysed cells.
In general terms: In an ELISA, binding on a coated surface is turned into a signal by an enzyme label.

[4] abbreviates: hydrocortisone phosphate 5 μg/ml alone.
The mark [5] stands for this setting: α-cyclodextrin sulfate 2.5 μg/ml alone.
Where [6] appears, read: α-cyclodextrin sulfate 5.0 μg/ml alone.
[7] abbreviates: α-cyclodextrin sulfate 10.0 μg/ml alone.

For `Cc1cn([C@H]2C[C@H](N=[N+]=[N-])[C@@H](CO)O2)c(=O)[nH]c1=O` [AZT, 3'-azido-2',3'-dideoxythy-midine], in the assay with HIV-1 (AZT 10 nM alone), the “Replication (fold decrease)” value is recorded as 1.2 fold decrease. The compound further yielded an RT activity with HIV-1 (AZT 10 nM alone, control 164) of 134 c.p.m. × 10^3 ml^-1. For the same compound, the “% <Decrease (viable cells)” value in the assay on PMNCs [1] (10nM) stood at 35%. The Viable cells with PMNCs [1] is 72 10^4 ml^-1.
As for `C[C@]12CCC(=O)C=C1CC[C@@H]1[C@@H]2[C@@H](O)C[C@@]2(C)[C@H]1CC[C@]2(O)C(=O)COP(=O)(O)O` [hydrocortisone phosphate], the “Inhibition of HIV-1 reverse transcriptase activity (%)” value in the assay with HIV-1 (setting [4]) is 39% and 20%. Besides, the “Cell Count in million per mL” value in the assay with PMNCs [2] (setting [4]) was 1.2 million per mL and 1.0 million per mL.
Turning to .varies.-cyclodextrin sulphate [A-CDS], in the assay with HIV-1, the “Inhibition of HIV-1 replication in PMNC cultures” value (shortened to “Inhibition of HIV-1 replication”) is recorded as “potent inhibitors”. In addition, the “Replication (fold decrease)” value with HIV-1 (A-CDS 0.5 μg ml^-1 alone) is 2.8 fold decrease; in the assay with HIV-1 (A-CDS 1.5 μg ml^-1 alone), 4.9 fold decrease. Besides, the RT activity came to 57 c.p.m. × 10^3 ml^-1 with HIV-1 (A-CDS 0.5 μg ml^-1 alone, control 164) and 33 c.p.m. × 10^3 ml^-1 in the assay with HIV-1 (A-CDS 1.5 μg ml^-1 alone, control 164). Besides, the “Relative anti-HIV potency from the dose-response relationship” value with HIV-1 (PMNC cultures, infected and treated simultaneously) is “more potent in anti-HIV action than PPS, B-CDS and DS”. Moreover, the “Virus-enhancement effect” value in the assay with HIV-1 was “lacks the virus-enhancement effect”. Moreover, the “Inhibition of HIV-1 reverse transcriptase activity (%)” value with HIV-1 (α-cyclodextrin sulfate 0.5 μg/ml alone) is listed as 77%; in the assay on HIV-1 (α-cyclodextrin sulfate 1.0 μg/ml alone), 72%; in the assay on HIV-1 (setting [5]), 80%; in the assay with HIV-1 (setting [6]), 83%; in the assay on HIV-1 (setting [7]), 91%. Moreover, the figures for the “Cell Count in million per mL” value with PMNCs [2] (setting [5]), in the assay with PMNCs [2] (setting [6]) and with PMNCs [2] (setting [7]) were 1.2 million per mL, 1.3 million per mL and 1.5 million per mL, respectively. Also, in assay [3], the “Inhibition of RT enzyme activity” value is “No inhibition”. Further, the Viable cells in the assay with PMNCs [1] (conc. 0.1 μg ml^-1) is recorded as 140 10^4 ml^-1; in the assay on PMNCs [1] (conc. 0.5 μg ml^-1) it was 128 10^4 ml^-1. The “% >Increase (viable cells)” value in the assay on PMNCs [1] (conc. 0.1 μg ml^-1) is 25%; with PMNCs [1] (conc. 0.5 μg ml^-1) it was 14%.
Consider Pentosan polysulfate [PPS], for which the “HIV-specific p24 in the cells” value in the assay on HIV-1 p24 antigen is given as “decrease in HIV-specific p24 in the cells”. In addition, in the assay on HIV-1, the “Inhibition of HIV-1 replication” value is reported as “potent inhibitors”. Also, in the assay with HIV-1 (PPS 2.0 μg ml^-1 alone), the “Replication <% decrease” value is recorded as 77.0%. Also, the RT activity in the assay on HIV-1 (PPS 2.0 μg ml^-1 alone, control 187) worked out at 43 c.p.m. × 10^3 ml^-1; in assay [3] (drug conc. 0.1 μg ml^-1) it was 194 c.p.m. × 10^3 ml^-1; in assay [3] (drug conc. 0.5 μg ml^-1), 219 c.p.m. × 10^3 ml^-1; in assay [3] (drug conc. 2.0 μg ml^-1) it was 163 c.p.m. × 10^3 ml^-1; in assay [3] (drug conc. 4.0 μg ml^-1) it was 22 c.p.m. × 10^3 ml^-1; in assay [3] (drug conc. 5.0 μg ml^-1), 17 c.p.m. × 10^3 ml^-1. Also, the RT activity was 17 c.p.m. × 10^3 ml^-1 in assay [3] (drug conc. 6.0 μg ml^-1); 9 c.p.m. × 10^3 ml^-1 in assay [3] (drug conc. 8.0 μg ml^-1); 7 c.p.m. × 10^3 ml^-1 in assay [3] (drug conc. 10.0 μg ml^-1); 4 c.p.m. × 10^3 ml^-1 in assay [3] (drug conc. 15.0 μg ml^-1); 2 c.p.m. × 10^3 ml^-1 in assay [3] (drug conc. 20.0 μg ml^-1); 1 c.p.m. × 10^3 ml^-1 in assay [3] (drug conc. 25.0 μg ml^-1). In addition, the “Increase in virus production” value in the assay on HIV-1 is “up to a three-fold increase in virus production”. Besides, the “Virus-enhancement effect” value in the assay on HIV-1 is given as “virus-enhancement effect”. Also, in assay [3] (0.1 and 0.5 μg ml^-1), the “Enhancement of the RT reaction” value is given as “enhancement of the reaction”. The figures for the “% >Increase (RT activity)” value in assay [3] (drug conc. 0.1 μg ml^-1) and in assay [3] (drug conc. 0.5 μg ml^-1) were 7.7% and 21.6%, respectively. The “% <Decrease (RT activity)” value in assay [3] (drug conc. 2.0 μg ml^-1) was 9.4%; in assay [3] (drug conc. 4.0 μg ml^-1, 120 min) it was 87% and 87.7%; in assay [3] (drug conc. 6.0 μg ml^-1, 120 min), 90.5%; in assay [3] (drug conc. 8.0 μg ml^-1, 120 min), 95.0%; in assay [3] (drug conc. 10.0 μg ml^-1, 120 min), 97.7%; in assay [3] (drug conc. 15.0 μg ml^-1, 120 min), 97.7%. In addition, the “% <Decrease (RT activity)” value is listed as 99.8% in assay [3] (drug conc. 20.0 μg ml^-1, 120 min) and 99.4% in assay [3] (drug conc. 25.0 μg ml^-1, 120 min). Besides, the Viable cells is 268 10^4 ml^-1 in the assay with PMNCs [1] (conc. 0.1 μg ml^-1) and 202 10^4 ml^-1 in the assay with PMNCs [1] (conc. 0.5 μg ml^-1). The “% >Increase (viable cells)” value in the assay on PMNCs [1] (conc. 0.1 μg ml^-1) is 141%. Moreover, the “% <Decrease (viable cells)” value with PMNCs [1] (conc. 0.5 μg ml^-1) is listed as 80%. In the assay on PMNCs [1] (particularly at low drug concentrations), the “Lymphoproliferative effect, increase in cell numbers relative to control cultures” value is “more lymphoproliferative activity than B-CDS and A-CDS”. Moreover, the “Protective effect on infected cells from HIV-associated cytopathic effect” value with PMNCs [1] (virus-infected PMNCs, relative to virus-infected drug-free cultures) was “more than A-CDS and B-CDS”.
Consider dextran sulphate [DS], for which the “Virus-enhancement effect” value with HIV-1 is listed as “virus-enhancement effect”. For the same compound, in the assay on PMNCs [1] (conc. 0.1 μg ml^-1), the Viable cells is on record as 170 10^4 ml^-1 and the “% <Decrease (viable cells)” value was found to be 51%. Further, in the assay with PMNCs [1] (conc. 0.5 μg ml^-1), the Viable cells is listed as 90 10^4 ml^-1 and the “% >Increase (viable cells)” value is 19%.
As to β-cyclodextrin sulphate [B-CDS], in the assay with HIV-1, the “Inhibition of HIV-1 replication” value is given as “potent inhibitors”, the “Increase in virus production” value was “up to a three-fold increase in virus production” and the “Virus-enhancement effect” value was “virus-enhancement effect”. Further, the “Replication <% decrease” value in the assay on HIV-1 (B-CDS 2.5 μg ml^-1 alone) was 40.1%. Besides, the RT activity in the assay with HIV-1 (B-CDS 2.5 μg ml^-1 alone, control 187) amounted to 112 c.p.m. × 10^3 ml^-1. Also, in assay [3], the “Inhibition of RT enzyme activity” value is recorded as “No inhibition”. Besides, in the assay on PMNCs [1] (conc. 0.1 μg ml^-1), the Viable cells is 188 10^4 ml^-1 and the “% >Increase (viable cells)” value is given as 67%. For the same compound, in the assay with PMNCs [1] (conc. 0.5 μg ml^-1), the Viable cells is reported as 140 10^4 ml^-1 and the “% >Increase (viable cells)” value was 25%.
